Test results as given in the supplement of paper PMC10307832.

What was measured:
Test in all cases: relative viability (nuclei count vs DMSO), 5 days (fraction); higher = more cells survive
BGJ398 + Crizotinib = compound: CCN1CCN(c2ccc(Nc3cc(N(C)C(=O)Nc4c(Cl)c(OC)cc(OC)c4Cl)ncn3)cc2)CC1 [BGJ398] + C[C@@H](Oc1cc(-c2cnn(C3CCNCC3)c2)cnc1N)c1c(Cl)ccc(F)c1Cl [Crizotinib] (partner 1 µM)
Method in brief: (§1)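 Each reported value is a median over duplicate plates. It expresses relative viability: treated-well nuclei count divided by vehicle-well nuclei count. Lung cancer cell lines in 1536-well plates were dosed by pin tool a day after seeding, alone with one drug or with a fixed anchor-drug dose plus five library-drug doses (not always all listed) in √10 steps, and nuclei were counted after 5 days.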

BGJ398 + Bortezomib = compound: CCN1CCN(c2ccc(Nc3cc(N(C)C(=O)Nc4c(Cl)c(OC)cc(OC)c4Cl)ncn3)cc2)CC1 [BGJ398] + CC(C)C[C@H](NC(=O)[C@H](Cc1ccccc1)NC(=O)c1cnccn1)B(O)O [Bortezomib] (partner 0.002 µM)
Method in brief: as §1

[1] = compound: C1=CC2=NC=CN=C2C=C1/C=C/3\C(=O)NC(=O)S3 + Nc1nc2[nH]cc(CCc3ccc(C(=O)N[C@@H](CCC(=O)O)C(=O)O)cc3)c2c(=O)[nH]1 [Pemetrexed] (partner 0.2 µM)
Method in brief: as §1

[2] = compound: C1=CC2=NC=CN=C2C=C1/C=C/3\C(=O)NC(=O)S3 + COc1cc2c(Oc3ccc(NC(=O)C4(C(=O)Nc5ccc(F)cc5)CC4)cc3F)ccnc2cc1OCCCN1CCOCC1 [Foretinib] (partner 0.25 µM)
Method in brief: as §1

## UMC-11
BGJ398 + Crizotinib; first compound 0.01 µM
  relative viability: 0.507
BGJ398 + Crizotinib; first compound 0.03162 µM
  relative viability: 0.585
BGJ398 + Crizotinib; first compound 0.1 µM
  relative viability: 0.539
BGJ398 + Crizotinib; first compound 0.3162 µM
  relative viability: 0.579
BGJ398 + Crizotinib; first compound 1 µM
  relative viability: 0.53
BGJ398 + Bortezomib; first compound 0.01 µM
  relative viability: 0.759
BGJ398 + Bortezomib; first compound 0.03162 µM
  relative viability: 0.632
BGJ398 + Bortezomib; first compound 0.1 µM
  relative viability: 0.706
BGJ398 + Bortezomib; first compound 0.3162 µM
  relative viability: 0.661
BGJ398 + Bortezomib; first compound 1 µM
  relative viability: 0.475
[1]; first compound 0.02 µM
  relative viability: 0.775
[1]; first compound 0.06325 µM
  relative viability: 0.816
[1]; first compound 0.2 µM
  relative viability: 0.862
[1]; first compound 0.6325 µM
  relative viability: 0.79
[1]; first compound 2 µM
  relative viability: 0.887
[2]; first compound 0.02 µM
  relative viability: 1.03
[2]; first compound 0.06325 µM
  relative viability: 1.03
[2]; first compound 0.2 µM
  relative viability: 1.09
[2]; first compound 0.6325 µM
  relative viability: 0.964
[2]; first compound 2 µM
  relative viability: 1.11
